# Test system: NMDAR
# Assay: not given
# Settings: amantadine; read-out: NMDAR antagonist IC50; cited from earlier work
row,Structure (SMILES),IC50 [µM]
1,NC12CC3CC(CC(C3)C1)C2 [amantadine],92 ± 29

# Same assay, conditions: cited from earlier work
row,Structure (SMILES),fold more potent as an NMDA inhibitor than amantadine [fold]
1,CC12CC3CC(C)(C1)CC(N)(C3)C2 [memantine],60

# Target: T1, human P2X7 receptor (Homo sapiens, UniProt Q99572)
# T1 construct: expressed in transfected cells; host or cells: HEK293
# T1 sequence (Q99572 1-595): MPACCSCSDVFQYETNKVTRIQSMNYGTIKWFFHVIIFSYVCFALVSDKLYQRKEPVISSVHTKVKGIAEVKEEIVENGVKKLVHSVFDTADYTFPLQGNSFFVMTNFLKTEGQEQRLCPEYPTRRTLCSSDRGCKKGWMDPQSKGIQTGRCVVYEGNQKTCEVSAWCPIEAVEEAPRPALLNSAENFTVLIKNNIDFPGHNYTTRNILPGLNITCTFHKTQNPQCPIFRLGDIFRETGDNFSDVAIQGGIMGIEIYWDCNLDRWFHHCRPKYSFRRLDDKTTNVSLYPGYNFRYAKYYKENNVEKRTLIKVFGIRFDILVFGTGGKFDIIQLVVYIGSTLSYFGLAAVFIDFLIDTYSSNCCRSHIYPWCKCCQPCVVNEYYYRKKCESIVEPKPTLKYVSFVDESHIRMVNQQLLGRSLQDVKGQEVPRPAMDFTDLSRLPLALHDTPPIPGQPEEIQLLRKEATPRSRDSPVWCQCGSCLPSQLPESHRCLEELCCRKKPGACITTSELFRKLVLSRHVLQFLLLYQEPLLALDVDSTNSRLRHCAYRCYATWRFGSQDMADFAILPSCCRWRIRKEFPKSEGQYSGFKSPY
# Assay: BzATP-induced ethidium bromide uptake (dye uptake) in hP2X7-expressing HEK293 cells
# Assay type: cell-based
# Settings: P2X7; at 1 μM (right value); relative to maximum ethidium bromide uptake stimulated by BzATP 6 µM
# Description: All new compounds were evaluated for their antagonistic effects on 2’(3’)-O-(4-benzoylbenzoyl)-ATP (BzATP)-induced ethidium bromide uptake in human embryonic kidney 293 (HEK 293) cells, stably expressing the human P2X7 receptor, using P2X7 receptor antagonist AZD9056—AstraZeneca’s clinical drug candidate [46]—as a positive control. […] However, taking into account that we wanted to design a compound endowed with low micromolar inhibitory potencies against both the P2X7 and NMDA receptors, compound 9g suited our purpose.
# HEK293 cells stably expressing the P2X7 receptor were maintained in Dulbecco's modified Eagle's medium (DMEM) supplemented with 10% fetal bovine serum (FBS), 2 mM L-glutamine, and antibiotics (50 U/mL penicillin and […] streptomycin) in a humidified 5% CO2 atmosphere at 37 °C. We used Lipofectamine as a transfection reagent with a pcDNA3.1 vector-based plasmid harbouring hP2X7R (Invitrogen, Waltham, MA, USA). After diluting to 2.5 × 10^6 cells/mL, a buffer composed of 10 mM HEPES, 5 mM N-methyl-D-glutamine, 5.6 mM KCl, 10 mM D-glucose, and 0.5 mM CaCl2 (pH 7.4), supplemented with either 280 mM sucrose or 140 mM NaCl and an 80 μL aliquot, was added to each well of 96-well culture plates. The test compounds and 2(3’)-O-(4-benzoylbenzoyl)-ATP (BzATP) were then added, and the cells were incubated for 2 h in a humidified 5% CO2 atmosphere at 37 °C. After incubation, a Bio-Tek FL600 fluorescence plate reader (Winooski, VT, USA) was used to measure the […] at an excitation wavelength of 530 nm and an emission wavelength of 590 nm. The inhibition (percent) of ethidium ion uptake was expressed as a relative value of the maximum accumulation when stimulated with BzATP only. To calculate IC50 values, we calculated a series of dose–response data using nonlinear regression analysis (i.e., percentage accumulation of ethidium bromide vs compound concentration). The concentration of ethidium bromide was 0.1 mM.
row,inhibition at 1 µM [%],Structure (SMILES)
1,27,"NC12CC3CC(C1)CC(C(=O)NNc1c(Cl)cncc1Cl)(C3)C2 [Compound 9e, 3-Amino-N'-(3,5-dichloropyridin-4-yl)adamantane-1-carbohydrazide]"
2,21,"NC12CC3CC(C1)CC(C(=O)NNc1ccc(C(F)(F)F)cc1Cl)(C3)C2 [Compound 9d, 3-Amino-N'-[2-chloro-4-(trifluoromethyl)phenyl]adamantane-1-carbohydrazide]"
3,17,"NC12CC3CC(C1)CC(C(=O)NNc1cccc(Cl)c1F)(C3)C2 [Compound 9f, 3-Amino-N'-(3-chloro-2-fluorophenyl)adamantane-1-carbohydrazide]"

# The next lines start with the compound.
row,Structure (SMILES),inhibition at 1 µM [%]
1,"NC12CC3CC(C1)CC(C(=O)NNc1cccc(Cl)c1Cl)(C3)C2 [Compound 9c, 3-Amino-N'-(2,3-dichlorophenyl)adamantane-1-carbohydrazide]",17
2,"NC12CC3CC(C1)CC(C(=O)NNc1ccccc1C(F)(F)F)(C3)C2 [Compound 9a, 3-Amino-N'-[2-(trifluoromethyl)phenyl]adamantane-1-carbohydrazide]",37
3,"NC12CC3CC(C1)CC(C(=O)NNc1c(Cl)cccc1Cl)(C3)C2 [Compound 9b, 3-Amino-N'-(2,6-dichlorophenyl)adamantane-1-carbohydrazide]",16

# Same assay, conditions: P2X7; at 10 µM (left value); relative to maximum ethidium bromide uptake stimulated by BzATP 6 µM
row,inhibition at 10 µM [%],Structure (SMILES)
1,53,"NC12CC3CC(C1)CC(C(=O)NNc1c(Cl)cncc1Cl)(C3)C2 [Compound 9e, 3-Amino-N'-(3,5-dichloropyridin-4-yl)adamantane-1-carbohydrazide]"
2,24,"NC12CC3CC(C1)CC(C(=O)NNc1ccc(C(F)(F)F)cc1Cl)(C3)C2 [Compound 9d, 3-Amino-N'-[2-chloro-4-(trifluoromethyl)phenyl]adamantane-1-carbohydrazide]"
3,15,"NC12CC3CC(C1)CC(C(=O)NNc1cccc(Cl)c1F)(C3)C2 [Compound 9f, 3-Amino-N'-(3-chloro-2-fluorophenyl)adamantane-1-carbohydrazide]"

# Further lines, the compound ahead of its results:
row,Structure (SMILES),inhibition at 10 µM [%]
1,"NC12CC3CC(C1)CC(C(=O)NNc1cccc(Cl)c1Cl)(C3)C2 [Compound 9c, 3-Amino-N'-(2,3-dichlorophenyl)adamantane-1-carbohydrazide]",42
2,"NC12CC3CC(C1)CC(C(=O)NNc1ccccc1C(F)(F)F)(C3)C2 [Compound 9a, 3-Amino-N'-[2-(trifluoromethyl)phenyl]adamantane-1-carbohydrazide]",48
3,"NC12CC3CC(C1)CC(C(=O)NNc1c(Cl)cccc1Cl)(C3)C2 [Compound 9b, 3-Amino-N'-(2,6-dichlorophenyl)adamantane-1-carbohydrazide]",23

# Test system: not given
# Assay: not given
# Settings: not given
row,melting point [°C],Structure (SMILES)
1,191 to 192,"NC12CC3CC(C1)CC(C(=O)NNc1c(Cl)cncc1Cl)(C3)C2 [Compound 9e, 3-Amino-N'-(3,5-dichloropyridin-4-yl)adamantane-1-carbohydrazide]"
2,185 to 186,"NC12CC3CC(C1)CC(C(=O)NNc1ccc(C(F)(F)F)cc1Cl)(C3)C2 [Compound 9d, 3-Amino-N'-[2-chloro-4-(trifluoromethyl)phenyl]adamantane-1-carbohydrazide]"
3,200 to 202,"NC12CC3CC(C1)CC(C(=O)NNc1cccc(Cl)c1F)(C3)C2 [Compound 9f, 3-Amino-N'-(3-chloro-2-fluorophenyl)adamantane-1-carbohydrazide]"

# Further lines, the compound ahead of its results:
row,Structure (SMILES),melting point [°C]
1,"NC12CC3CC(C1)CC(C(=O)NNc1cccc(Cl)c1Cl)(C3)C2 [Compound 9c, 3-Amino-N'-(2,3-dichlorophenyl)adamantane-1-carbohydrazide]",215 to 219
2,"NC12CC3CC(C1)CC(C(=O)NNc1ccccc1C(F)(F)F)(C3)C2 [Compound 9a, 3-Amino-N'-[2-(trifluoromethyl)phenyl]adamantane-1-carbohydrazide]",213 to 216
3,"NC12CC3CC(C1)CC(C(=O)NNc1c(Cl)cccc1Cl)(C3)C2 [Compound 9b, 3-Amino-N'-(2,6-dichlorophenyl)adamantane-1-carbohydrazide]",153 to 156

# Test system: NMDA receptors
# Assay: Inhibition of NMDA-evoked increase in intracellular calcium in rat cultured cerebellar granule neurons
# Assay type: cell-based
# Settings: at 100 µM (left value); relative to maximum intracellular calcium stimulated by 100 µM NMDA with 10 µM glycine
# Description: Additionally, to evaluate whether the synthesized compounds were able to antagonize the NMDA receptors, we measured their effects on the increase in intracellular calcium evoked by NMDA (100 μM, in the presence of 10 μM of glycine) on rat-cultured cerebellar granule neurons.
# The functional assay of antagonist activity at the NMDA receptors was performed using primary cultures of rat cerebellar granule neurons that were prepared according to established protocols. Cells were grown on 10 mm poly-L-lysine coated glass cover slips, and used for the experiments after 6–9 days in vitro. Cells were loaded with 6 µM Fura-2 AM (ThermoFisher Scientific-Molecular Probes) for 30 min. Afterwards, the coverslip was mounted on a quartz cuvette containing a Locke-Hepes buffer using a special holder. Measurements were performed using a PerkinElmer LS-55 fluorescence spectrometer (Waltham, MA, USA) equipped with a fast-filter accessory, under mild agitation and at 37 °C. Analysis of each sample was recorded in real time for 1600 s. After stimulation with NMDA (100 µM, in the presence of 10 µM glycine), increasing cumulative concentrations of the compound to be tested were added. The percentages of inhibition at every tested concentration were analyzed using a non-linear regression curve fitting analysis by using the software GraphPad Prism 5.0 (GraphPad Software Inc., La Jolla, CA, USA).
# Table S1. NMDA antagonist activity in rat cerebellar granule cells. […]
# aPercentage inhibition values at 100 µM (left) and 300 μM (right) were expressed as percentages, relative to maximum intracellular calcium concentration stimulated by 100 µM NMDA in the presence of 10 µM of glycine. All experiments were repeated at least three times. bIC50 value was obtained from concentration response curves.
row,Structure (SMILES),% inhibition [%]
1,"NC12CC3CC(C1)CC(C(=O)NNc1cccc(Cl)c1Cl)(C3)C2 [Compound 9c, 3-Amino-N'-(2,3-dichlorophenyl)adamantane-1-carbohydrazide]",23
2,"NC12CC3CC(C1)CC(C(=O)NNc1c(Cl)cncc1Cl)(C3)C2 [Compound 9e, 3-Amino-N'-(3,5-dichloropyridin-4-yl)adamantane-1-carbohydrazide]",6
3,"NC12CC3CC(C1)CC(C(=O)NNc1ccccc1C(F)(F)F)(C3)C2 [Compound 9a, 3-Amino-N'-[2-(trifluoromethyl)phenyl]adamantane-1-carbohydrazide]",5
4,"NC12CC3CC(C1)CC(C(=O)NNc1ccc(C(F)(F)F)cc1Cl)(C3)C2 [Compound 9d, 3-Amino-N'-[2-chloro-4-(trifluoromethyl)phenyl]adamantane-1-carbohydrazide]",20
5,"NC12CC3CC(C1)CC(C(=O)NNc1c(Cl)cccc1Cl)(C3)C2 [Compound 9b, 3-Amino-N'-(2,6-dichlorophenyl)adamantane-1-carbohydrazide]",17
6,"NC12CC3CC(C1)CC(C(=O)NNc1cccc(Cl)c1F)(C3)C2 [Compound 9f, 3-Amino-N'-(3-chloro-2-fluorophenyl)adamantane-1-carbohydrazide]",11

# Same assay, conditions: at 300 μM (right value); relative to maximum intracellular calcium stimulated by 100 µM NMDA with 10 µM glycine
row,Structure (SMILES),% inhibition [%]
1,"NC12CC3CC(C1)CC(C(=O)NNc1cccc(Cl)c1Cl)(C3)C2 [Compound 9c, 3-Amino-N'-(2,3-dichlorophenyl)adamantane-1-carbohydrazide]",30
2,"NC12CC3CC(C1)CC(C(=O)NNc1c(Cl)cncc1Cl)(C3)C2 [Compound 9e, 3-Amino-N'-(3,5-dichloropyridin-4-yl)adamantane-1-carbohydrazide]",16
3,"NC12CC3CC(C1)CC(C(=O)NNc1ccccc1C(F)(F)F)(C3)C2 [Compound 9a, 3-Amino-N'-[2-(trifluoromethyl)phenyl]adamantane-1-carbohydrazide]",14
4,"NC12CC3CC(C1)CC(C(=O)NNc1c(Cl)cccc1Cl)(C3)C2 [Compound 9b, 3-Amino-N'-(2,6-dichlorophenyl)adamantane-1-carbohydrazide]",38
5,"NC12CC3CC(C1)CC(C(=O)NNc1cccc(Cl)c1F)(C3)C2 [Compound 9f, 3-Amino-N'-(3-chloro-2-fluorophenyl)adamantane-1-carbohydrazide]",18

# From paper PMC6017257, “Towards a Novel Class of Multitarget-Directed Ligands: Dual P2X7–NMDA Receptor Antagonists” (Molecules : A Journal of Synthetic Chemistry and Natural …, 2018)
